# Results: paper PMC7270110, “Labeled oxytocin administered via the intranasal route reaches the brain in rhesus macaques” (Nature Communications, 2020)
# Test: Brain tissue concentration of endogenous OT (d0OT) by LC-MS/MS (terminal experiment)
# Assay type: in vivo, rhesus macaques (Macaca mulatta)
# Set-up: key: ND: not detected; +: detected but not quantifiable
# Details: for Concentrations of endogenous brain oxytocin (OT): molarity calculated for extracellular fluid volume; for BRAIN OT concentration (endogenous): LC-MS/MS
# Experimental: Monkeys were divided into three groups, each with two monkeys; each group received the following in a terminal study at the 5th week: Group 1 (Monkeys ID# 1 and ID# 5) received 40 IU of d5OT IN, Group 2 received 80 IU of d5OT IN (Monkeys ID# 2 and ID# 4) and Group 3 received 80 IU of d5OT IV (Monkeys ID# 3 and ID# 6). Animals were perfused on average, 140 ± 7 (mean ± SD) min after d5OT administration (range = 135–149 min) (Table 4). Plasma and CSF were drawn just before administration of d5OT, at the midpoint between d5OT administration and perfusion (~60 min post-d5OT administration), and just before perfusion.
# Brain tissue distribution of d5OT, as well as the endogenous concentrations of OT (d0OT), were measured in the following 12 brain regions: cerebellum, brainstem, striatum, amygdala, thalamus, visual cortex, insular cortex, hypothalamus, hippocampus, mPFC (Brodmann areas 32,25,24), dPFC (Brodmann areas 46,9,10), and OFC (Brodmann areas 14,13,12) (Tables 1, 2 and 3).
# Brain tissue sample preparation: Samples (~1.5 mg per sample) were individually weighed and placed into 12 mm × 75 mm glass tubes containing 1.5 ml ice-cold 1 M acetic acid and 30 µl of OT-d10 internal standard. Tissues were homogenized on ice and the resulting homogenates were poured into individual 15 ml polystyrene tubes. The original glass tube was rinsed with 1 ml acetonitrile, and this rinse was added to the appropriate 15 ml polystyrene tube containing the homogenate. After all homogenizations were complete, 3 ml acetonitrile was added to each tube and extraction proceeded, as described for the plasma and CSF samples.
# LC–MS/MS instrument parameters: Microtiter plates were prepared, as described above, and loaded onto a SIL-30ACMP autosampler set at 4 °C (Shimadzu). Forty microliters of each standard, QC or sample were injected onto an ACE Excel 2 C18-PFP 50 mm × 2.1 mm column (Advanced Chromatography Technologies, LTD, Aberdeen, Scotland) at 50 °C using reversed-phase chromatography. Mobile phase A was 0.1% formic acid in water and mobile phase B was 0.1% formic acid in ACN. The LC time gradient was created using two Nexera LC-30AD pumps (Shimadzu) running at 0.5 ml/min. Chromatography for serum and CSF samples began at 10% B and ended at 16% B at 3.6 min. One minute at 60% B was then required to wash the column, and the pumps re-equilibrated at 10% B for an additional 1.7 min (total run time ~6 min). Outside of the 1.55–3.55 min window during which OT eluted, a divert valve sent the LC effluent to waste.
# Heated electrospray […] in positive mode, with scheduled multiple reaction monitoring (MRM) on a Shimadzu LCMS-8050, was used for detection of OT. The interface temperature was 270 °C and heat block temperature was 170 °C. Gas was supplied by a Peak Genius 1051 nitrogen and air generator (Peak Scientific, Inchinnan, UK). Nitrogen gas was used for nebulizing (1 L/min) and drying (8.2 L/min), while air was used for heating (7.8 L/min). A capillary B needle was used in the interface. Needle protrusion was set to 1.25 mm and probe distance was set to 1.0 mm; both were determined empirically. Argon (Airgas, Radnor, PA) was used for the collision-induced dissociation at 330 kPa. The MS/MS conditions for OT were optimized using the automated MRM optimization procedure in LabSolutions software (Shimadzu). We collected two MRM transitions each, for d0OT (1007.40 > 723.40 and 1007.40 > 285.30), d5OT (1012.00 > 723.40 and 1012.00 > 290.35), and d10OT (1017.70 > 723.35 and 1017.70 > 295.40); the first transition listed in each case was used for quantitation, while the second was used as a reference ion. Retention times for d0OT, d5OT, and d10OT were 3.290, 3.270, and 3.253 min, respectively.
# The sensitivities of each assay within the method were determined by the lowest and highest concentration calibrators in the calibration curve. The lower limit of quantitation (LLOQ) for d0OT was 10 pg/ml (4 pg/col); the LLOQ for d5OT was 100 pg/ml (40 pg/col). […]
smiles,measurement,setting,value
"CC[C@H](C)[C@@H]1NC(=O)[C@H](Cc2ccc(O)cc2)NC(=O)[C@@H](N)CSSC[C@@H](C(=O)N2CCC[C@H]2C(=O)N[C@@H](CC(C)C)C(=O)NCC(N)=O)NC(=O)[C@H](CC(N)=O)NC(=O)[C@H](CCC(N)=O)NC1=O [OT, oxytocin]",Concentrations of endogenous brain oxytocin (OT),"Amygdala, 40 IN, monkey #5 (F)",2.14e-07 M
same,Concentrations of endogenous brain oxytocin (OT),"Amygdala, 80 IN, monkey #2 (M)",3.2e-08 M
same,Concentrations of endogenous brain oxytocin (OT),"Amygdala, 80 IN, monkey #4 (M)",1.31e-07 M
same,Concentrations of endogenous brain oxytocin (OT),"Amygdala, 80 IV, monkey #3 (F)",2.5e-08 M
same,Concentrations of endogenous brain oxytocin (OT),"Amygdala, 80 IV, monkey #6 (F)",4e-08 M
same,BRAIN OT concentration (endogenous),"Amygdala, after d5OT 40 IU IN, monkey #5 (F), perfused 138 min post-dose",39.11 pg/mg
same,BRAIN OT concentration (endogenous),"Amygdala, after d5OT 80 IU IN, monkey #2 (M), perfused 136 min post-dose",5.82 pg/mg
same,BRAIN OT concentration (endogenous),"Amygdala, after d5OT 80 IU IN, monkey #4 (M), perfused 135 min post-dose",23.97 pg/mg
same,BRAIN OT concentration (endogenous),"Amygdala, after d5OT 80 IU IV, monkey #3 (F), perfused 149 min post-dose",4.63 pg/mg
same,BRAIN OT concentration (endogenous),"Amygdala, after d5OT 80 IU IV, monkey #6 (F), perfused 135 min post-dose",7.26 pg/mg
same,Concentrations of endogenous brain oxytocin (OT),"Brainstem, 40 IN, monkey #1 (F)",4e-08 M
same,Concentrations of endogenous brain oxytocin (OT),"Brainstem, 40 IN, monkey #5 (F)",5.1e-08 M
same,Concentrations of endogenous brain oxytocin (OT),"Brainstem, 80 IN, monkey #2 (M)",2.8e-08 M
same,Concentrations of endogenous brain oxytocin (OT),"Brainstem, 80 IN, monkey #4 (M)",1.9e-08 M
same,Concentrations of endogenous brain oxytocin (OT),"Brainstem, 80 IV, monkey #3 (F)",6e-08 M
same,Concentrations of endogenous brain oxytocin (OT),"Brainstem, 80 IV, monkey #6 (F)",2e-08 M
same,BRAIN OT concentration (endogenous),"Brainstem, after d5OT 40 IU IN, monkey #1 (F), perfused 148 min post-dose",7.27 pg/mg
same,BRAIN OT concentration (endogenous),"Brainstem, after d5OT 40 IU IN, monkey #5 (F), perfused 138 min post-dose",9.34 pg/mg
same,BRAIN OT concentration (endogenous),"Brainstem, after d5OT 80 IU IN, monkey #2 (M), perfused 136 min post-dose",5.11 pg/mg
same,BRAIN OT concentration (endogenous),"Brainstem, after d5OT 80 IU IN, monkey #4 (M), perfused 135 min post-dose",3.55 pg/mg
same,BRAIN OT concentration (endogenous),"Brainstem, after d5OT 80 IU IV, monkey #3 (F), perfused 149 min post-dose",10.93 pg/mg
same,BRAIN OT concentration (endogenous),"Brainstem, after d5OT 80 IU IV, monkey #6 (F), perfused 135 min post-dose",3.58 pg/mg
same,Concentrations of endogenous brain oxytocin (OT),"Cerebellum, 40 IN, monkey #1 (F)",1.2e-08 M
same,Concentrations of endogenous brain oxytocin (OT),"Cerebellum, 40 IN, monkey #5 (F)",<1e-09 M
same,Concentrations of endogenous brain oxytocin (OT),"Cerebellum, 80 IN, monkey #4 (M)",<1e-09 M
same,Concentrations of endogenous brain oxytocin (OT),"Cerebellum, 80 IV, monkey #6 (F)",+
same,BRAIN OT concentration (endogenous),"Cerebellum, after d5OT 40 IU IN, monkey #1 (F), perfused 148 min post-dose",2.16 pg/mg
same,BRAIN OT concentration (endogenous),"Cerebellum, after d5OT 40 IU IN, monkey #5 (F), perfused 138 min post-dose",0.12 pg/mg
same,BRAIN OT concentration (endogenous),"Cerebellum, after d5OT 80 IU IN, monkey #4 (M), perfused 135 min post-dose",0.06 pg/mg
same,BRAIN OT concentration (endogenous),"Cerebellum, after d5OT 80 IU IV, monkey #6 (F), perfused 135 min post-dose",+
same,Concentrations of endogenous brain oxytocin (OT),"Hippocampus, 40 IN, monkey #1 (F)",5e-09 M
same,Concentrations of endogenous brain oxytocin (OT),"Hippocampus, 40 IN, monkey #5 (F)",5e-09 M
same,Concentrations of endogenous brain oxytocin (OT),"Hippocampus, 80 IN, monkey #2 (M)",1.5e-08 M
same,Concentrations of endogenous brain oxytocin (OT),"Hippocampus, 80 IN, monkey #4 (M)",1.5e-08 M
same,Concentrations of endogenous brain oxytocin (OT),"Hippocampus, 80 IV, monkey #3 (F)",5e-09 M
same,Concentrations of endogenous brain oxytocin (OT),"Hippocampus, 80 IV, monkey #6 (F)",5e-09 M
same,BRAIN OT concentration (endogenous),"Hippocampus, after d5OT 40 IU IN, monkey #1 (F), perfused 148 min post-dose",0.99 pg/mg
same,BRAIN OT concentration (endogenous),"Hippocampus, after d5OT 40 IU IN, monkey #5 (F), perfused 138 min post-dose",0.99 pg/mg
same,BRAIN OT concentration (endogenous),"Hippocampus, after d5OT 80 IU IN, monkey #2 (M), perfused 136 min post-dose",2.83 pg/mg
same,BRAIN OT concentration (endogenous),"Hippocampus, after d5OT 80 IU IV, monkey #3 (F), perfused 149 min post-dose",0.99 pg/mg
same,BRAIN OT concentration (endogenous),"Hypothalamus, after d5OT 40 IU IN, monkey #1 (F), perfused 148 min post-dose",2186.74 pg/mg
same,BRAIN OT concentration (endogenous),"Hypothalamus, after d5OT 80 IU IN, monkey #2 (M), perfused 136 min post-dose",943.27 pg/mg
same,BRAIN OT concentration (endogenous),"Hypothalamus, after d5OT 80 IU IV, monkey #3 (F), perfused 149 min post-dose",1491.96 pg/mg
same,Concentrations of endogenous brain oxytocin (OT),"Insular Cortex, 40 IN, monkey #5 (F)",2e-09 M
same,Concentrations of endogenous brain oxytocin (OT),"Insular Cortex, 80 IN, monkey #4 (M)",<1e-09 M
same,Concentrations of endogenous brain oxytocin (OT),"Insular Cortex, 80 IV, monkey #3 (F)",1e-09 M
